Tests used:
Water dispersion test = type: physicochemical; conditions: 0.5% surfactant added to Paste A
Experimental: Add appropriate food-grade carmine dye to the above pastes, homogenize thoroughly with a homogenizer so that each paste can be squeezed out from a 25 G root canal irrigation needle, and divide into syringes for use.
S1: Prepare 23 150 mL beakers with similar diameters, fill them with water, and inject one drop (approximately 0.01 g) of each of the 23 pastes (A, B, C, D, E, F, G, H, A1-A15) into each beaker through a 25 G root canal irrigation needle (except G and H).
S2: Observe the color change immediately after preparation.

bacteria = conditions: intracanal medicament for one week; cited from earlier work
Enterococcus faecalis = conditions: in vitro direct contact; cited from earlier work

Compound | effect of surfactant on the dispersion of the paste in water (Water dispersion test) | reduction of bacteria (bacteria) [%] | contact time for complete eradication of Enterococcus faecalis (Enterococcus faecalis) [h]
Fatty Alcohol Polyoxyethylene Ether [AEO-9] | negative effects | – | –
[Ca+2].[OH-].[OH-] [calcium hydroxide] | – | 92.5 | 24
CC(=O)O.CC(=O)O.NC(=N\CCCCCC/N=C(N)/N=C(\N)Nc1ccc(Cl)cc1)/N=C(\N)Nc1ccc(Cl)cc1 [CHX, Chlorhexidine Acetate] | best performance | – | –
Polyoxyethylene (60) Hydrogenated Castor Oil [RH60] | best performance | – | –

Source: patent US20250268799A1, “MEDIUM FOR WATER-FREE ROOT CANAL DISINFECTANT WITH HIGH FLUIDITY, DISINFECTANT USING SAME, AND USE THEREOF” (WENZHOU QINGCHENG HEALTHCARE TECH LTD., priority 2022, published 2025)
